Data as given in patent publication US10000535B2, “Template-fixed peptidomimetics” (POLYPHOR LTD., priority 2007, dated 2018).
Non-standard residues stand in square brackets, D forms with d. Residues, ends and D or L forms follow the SMILES beside them. Aze = O=C(O)[C@@H]1CCN1

Experiments:
Assay in all cases: Selectivity calcium flux assay, chemokine receptor panel
Format in all cases: cell-based
Conditions in all cases: at 10 μM
CCR3 = molecular target: T1, CCR3 (Homo sapiens, UniProt P51677)
T1 sequence (P51677 1-355): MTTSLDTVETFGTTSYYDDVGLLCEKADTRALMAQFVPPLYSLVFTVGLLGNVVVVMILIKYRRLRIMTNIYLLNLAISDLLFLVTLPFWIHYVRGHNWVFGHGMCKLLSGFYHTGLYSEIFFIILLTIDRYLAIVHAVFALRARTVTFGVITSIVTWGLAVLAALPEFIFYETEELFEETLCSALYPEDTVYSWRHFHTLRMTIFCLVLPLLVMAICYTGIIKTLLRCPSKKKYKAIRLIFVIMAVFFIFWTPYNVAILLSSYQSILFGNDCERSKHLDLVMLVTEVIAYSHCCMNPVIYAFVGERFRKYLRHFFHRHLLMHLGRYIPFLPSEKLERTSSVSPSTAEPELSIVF
Experimental: (§1) Selectivity was measured using the calcium flux assay on a panel of human chemokine receptor bearing cell lines (CCR1, CCR2, CCR3, CCR4, CCR5, CCR6, CCR7, CCR8, CCR9, CCR10, CXCR1, CXCR2, CXCR2, CXCR4, CXCR6 and CXCCR1) using the same method as above

CCR4 = molecular target: T2, CCR4 (Homo sapiens, UniProt P51679)
T2 sequence (P51679 1-360): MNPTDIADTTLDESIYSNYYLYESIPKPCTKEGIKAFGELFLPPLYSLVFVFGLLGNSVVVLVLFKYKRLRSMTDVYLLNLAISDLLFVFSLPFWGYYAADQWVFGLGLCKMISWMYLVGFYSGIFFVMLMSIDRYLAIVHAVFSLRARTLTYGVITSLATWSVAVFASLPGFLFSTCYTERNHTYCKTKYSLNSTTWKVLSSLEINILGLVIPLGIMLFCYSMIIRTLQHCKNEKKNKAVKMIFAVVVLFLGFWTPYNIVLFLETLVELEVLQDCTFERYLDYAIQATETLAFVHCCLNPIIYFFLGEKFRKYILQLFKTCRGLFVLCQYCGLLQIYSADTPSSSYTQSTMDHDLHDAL
Experimental: as §1

CCR7 = molecular target: T3, CCR7 (Homo sapiens, UniProt P32248)
T3 sequence (P32248 25-378): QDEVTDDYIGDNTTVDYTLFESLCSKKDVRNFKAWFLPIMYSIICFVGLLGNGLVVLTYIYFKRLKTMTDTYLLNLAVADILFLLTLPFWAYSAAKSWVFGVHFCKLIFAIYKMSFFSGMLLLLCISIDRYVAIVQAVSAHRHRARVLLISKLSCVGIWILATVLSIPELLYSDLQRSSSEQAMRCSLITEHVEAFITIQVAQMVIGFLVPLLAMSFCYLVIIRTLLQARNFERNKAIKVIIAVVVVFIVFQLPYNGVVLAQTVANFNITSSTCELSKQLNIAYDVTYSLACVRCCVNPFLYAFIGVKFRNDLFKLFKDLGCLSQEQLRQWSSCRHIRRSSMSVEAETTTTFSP
Experimental: as §1

CCR8 = CCR8 (Homo sapiens, UniProt P51685)
Chain of CCR8 (P51685 whole entry): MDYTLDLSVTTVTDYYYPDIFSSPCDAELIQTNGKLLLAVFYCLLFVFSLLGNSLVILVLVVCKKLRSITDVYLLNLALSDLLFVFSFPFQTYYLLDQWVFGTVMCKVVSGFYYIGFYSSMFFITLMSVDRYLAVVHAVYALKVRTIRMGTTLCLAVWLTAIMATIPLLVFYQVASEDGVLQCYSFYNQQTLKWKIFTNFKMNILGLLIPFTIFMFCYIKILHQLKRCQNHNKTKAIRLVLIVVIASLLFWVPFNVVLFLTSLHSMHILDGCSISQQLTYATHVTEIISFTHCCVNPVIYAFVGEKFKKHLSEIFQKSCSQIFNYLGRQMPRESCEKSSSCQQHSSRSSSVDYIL
Experimental: as §1

CCR9 = molecular target: T4, CCR9 (Homo sapiens, UniProt P51686)
T4 sequence (P51686 1-369): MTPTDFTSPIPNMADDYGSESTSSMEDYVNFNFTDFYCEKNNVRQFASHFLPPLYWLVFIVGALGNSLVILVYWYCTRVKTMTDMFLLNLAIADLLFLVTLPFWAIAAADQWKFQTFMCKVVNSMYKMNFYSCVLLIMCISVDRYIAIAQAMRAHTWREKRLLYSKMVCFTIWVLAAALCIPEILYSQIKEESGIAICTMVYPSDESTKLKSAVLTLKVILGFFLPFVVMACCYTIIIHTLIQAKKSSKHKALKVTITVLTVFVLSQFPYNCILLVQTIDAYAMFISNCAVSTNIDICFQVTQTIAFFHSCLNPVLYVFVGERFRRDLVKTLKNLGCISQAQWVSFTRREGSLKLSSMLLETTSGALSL
Experimental: as §1

CXCCR1 = molecular target: T5, CXCCR1 (Homo sapiens, UniProt P49238)
T5 sequence (P49238 1-355): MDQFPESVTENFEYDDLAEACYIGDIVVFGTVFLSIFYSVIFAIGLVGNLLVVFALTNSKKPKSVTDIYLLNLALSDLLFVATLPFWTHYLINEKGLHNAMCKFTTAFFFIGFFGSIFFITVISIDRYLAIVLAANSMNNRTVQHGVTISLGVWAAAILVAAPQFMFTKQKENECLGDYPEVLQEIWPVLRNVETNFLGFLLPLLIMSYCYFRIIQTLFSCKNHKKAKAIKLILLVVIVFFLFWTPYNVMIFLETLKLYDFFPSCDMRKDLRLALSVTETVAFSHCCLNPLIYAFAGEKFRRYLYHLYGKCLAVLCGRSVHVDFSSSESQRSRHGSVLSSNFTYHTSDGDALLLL
Experimental: as §1

CXCR1 = molecular target: T6, CXCR1 (Homo sapiens, UniProt P25024)
T6 sequence (P25024 1-350): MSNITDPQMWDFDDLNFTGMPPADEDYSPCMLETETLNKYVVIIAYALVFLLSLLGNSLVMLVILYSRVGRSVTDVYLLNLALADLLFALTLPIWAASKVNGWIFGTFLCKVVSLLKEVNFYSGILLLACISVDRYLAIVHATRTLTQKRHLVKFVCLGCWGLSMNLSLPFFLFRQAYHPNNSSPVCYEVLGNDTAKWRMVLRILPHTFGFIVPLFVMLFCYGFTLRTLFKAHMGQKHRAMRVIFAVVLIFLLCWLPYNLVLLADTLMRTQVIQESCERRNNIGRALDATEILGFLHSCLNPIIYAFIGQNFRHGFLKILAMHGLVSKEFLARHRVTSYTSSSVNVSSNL
Experimental: as §1

CXCR2 = molecular target: T7, CXCR2 (Homo sapiens, UniProt P25025)
T7 sequence (P25025 1-360): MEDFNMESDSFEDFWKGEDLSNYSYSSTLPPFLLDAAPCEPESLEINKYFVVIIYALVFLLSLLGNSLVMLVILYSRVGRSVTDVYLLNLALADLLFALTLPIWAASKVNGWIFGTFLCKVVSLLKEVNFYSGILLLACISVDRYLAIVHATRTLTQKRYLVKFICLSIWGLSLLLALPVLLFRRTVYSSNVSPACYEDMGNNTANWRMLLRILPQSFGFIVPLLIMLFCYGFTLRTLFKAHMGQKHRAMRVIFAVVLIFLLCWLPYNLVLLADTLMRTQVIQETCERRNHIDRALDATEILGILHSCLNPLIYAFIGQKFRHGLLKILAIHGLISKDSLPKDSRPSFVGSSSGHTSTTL
Experimental: as §1

CXCR4 chemokine receptor = CXCR4 chemokine receptor (Homo sapiens, UniProt P61073)
Chain of CXCR4 chemokine receptor (P61073 whole entry): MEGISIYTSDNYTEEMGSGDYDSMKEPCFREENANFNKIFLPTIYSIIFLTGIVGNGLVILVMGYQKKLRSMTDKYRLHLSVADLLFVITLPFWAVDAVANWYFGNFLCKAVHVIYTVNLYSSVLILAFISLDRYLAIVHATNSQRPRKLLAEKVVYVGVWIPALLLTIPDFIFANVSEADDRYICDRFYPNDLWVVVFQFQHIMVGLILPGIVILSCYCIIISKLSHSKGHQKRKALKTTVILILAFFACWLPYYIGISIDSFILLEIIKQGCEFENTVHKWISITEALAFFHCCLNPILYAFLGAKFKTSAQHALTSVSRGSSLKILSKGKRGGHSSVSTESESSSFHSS
Experimental: as §1

N=C(N)NCCC[C@@H]1NC(=O)[C@H](Cc2c[nH]c3ccccc23)NC(=O)[C@H](Cc2ccc(O)cc2)NC(=O)[C@@H]2CCN2C(=O)[C@H]2CCCN2C(=O)CNC1=O [Example 15] (cyclo(YWRG[dP][Aze]))
highly selective: selectivity against CCR3 (CCR3) | selectivity against CCR4 (CCR4) | selectivity against CCR7 (CCR7) | selectivity against CCR8 (CCR8) | selectivity against CCR9 (CCR9) | selectivity against CXCCR1 (CXCCR1) | selectivity against CXCR1 (CXCR1) | selectivity against CXCR2 (CXCR2) | selectivity against CXCR4 chemokine receptor (CXCR4 chemokine receptor)

C[C@@H]1NC(=O)[C@H](CCCNC(=N)N)NC(=O)[C@H](Cc2c[nH]c3ccccc23)NC(=O)[C@H](Cc2ccc(O)cc2)NC(=O)[C@@H]2CCN2C(=O)[C@H]2CCCN2C1=O [Example 16] (cyclo(YWRA[dP][Aze]))
highly selective: selectivity against CCR3 (CCR3) | selectivity against CCR4 (CCR4) | selectivity against CCR7 (CCR7) | selectivity against CCR8 (CCR8) | selectivity against CCR9 (CCR9) | selectivity against CXCCR1 (CXCCR1) | selectivity against CXCR1 (CXCR1) | selectivity against CXCR2 (CXCR2) | selectivity against CXCR4 chemokine receptor (CXCR4 chemokine receptor)
